Patent US10059704B2, “1,4-disubstituted 1,2,3-triazoles, methods for preparing same, and diagnostic and therapeutic uses thereof” (CENTRE NATIONAL DE LA RECHERCHE SCIENTIFIQUE (C.N.R.S.), priority 2011, dated 2018)
Where two headings read alike, the source gives them in different places.

Experiments:
[1] = target: nicotinic receptors Rα7 (Rattus norvegicus, UniProt Q05941); assay: biochemical; assay type: binding
[2] = rat frontal cortex membranes, [125I]α-bungarotoxin 2 nM, 22° C., 3 hours, Ki calculated from IC50 (Cheng and Prussof), read-out: Activity on Rα7

nicotinic receptors Rα7, sequence (Q05941 23-502): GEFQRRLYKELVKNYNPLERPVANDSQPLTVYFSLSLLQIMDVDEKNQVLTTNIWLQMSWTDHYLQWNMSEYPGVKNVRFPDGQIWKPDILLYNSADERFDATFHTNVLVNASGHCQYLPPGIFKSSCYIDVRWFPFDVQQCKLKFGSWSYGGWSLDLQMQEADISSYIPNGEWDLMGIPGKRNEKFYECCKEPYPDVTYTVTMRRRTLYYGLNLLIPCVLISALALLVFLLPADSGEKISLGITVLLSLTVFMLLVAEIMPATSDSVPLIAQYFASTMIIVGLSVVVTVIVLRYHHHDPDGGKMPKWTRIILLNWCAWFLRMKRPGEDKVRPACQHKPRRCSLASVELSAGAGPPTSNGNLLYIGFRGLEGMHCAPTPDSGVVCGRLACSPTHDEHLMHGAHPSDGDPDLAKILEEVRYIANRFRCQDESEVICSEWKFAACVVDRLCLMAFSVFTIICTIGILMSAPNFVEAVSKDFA

SMILES	melting point	Ki [1, 2]	Ki [1]
c1ccc(-c2cn([C@H]3CN4CCC3CC4)nn2)cc1 [Compound 37, (R)-3-(4-Phenyl-1H-1,2,3-triazol-1-yl)quinuclidine]	132 °C	8 ± 4 nM	
Clc1ccc(-c2cn([C@H]3CN4CCC3CC4)nn2)cc1 [Compound 39, (R)-3-(4-(4-Chlorophenyl)-1H-1,2,3-triazol-1-yl)quinuclidine]	144 °C	8 ± 3 nM	
Clc1ccc(-c2cn([C@H]3CN4CCC3CC4)nn2)cc1Cl [Compound 40, (R)-3-(4-(3,4-Dichlorophenyl)-1H-1,2,3-triazol-1-yl)quinuclidine]	108 °C	19 ± 6 nM	
Brc1ccc(-c2cn([C@H]3CN4CCC3CC4)nn2)cc1 [Compound 41, (R)-3-(4-(4-Bromophenyl)-1H-1,2,3-triazol-1-yl)quinuclidine]	158 °C		6 ± 3 nM
Fc1cccc(-c2cn([C@H]3CN4CCC3CC4)nn2)c1 [Compound 43, (R)-3-(4-(3-Fluorophenyl)-1H-1,2,3-triazol-1-yl)quinuclidine]	120 °C	10 ± 1 nM	
Fc1ccccc1-c1cn([C@H]2CN3CCC2CC3)nn1 [Compound 44, (R)-3-(4-(2-Fluorophenyl)-1H-1,2,3-triazol-1-yl)quinuclidine]	94 °C	13 ± 3 nM	
Fc1ccc(-c2cn([C@H]3CN4CCC3CC4)nn2)cc1F [Compound 45, (R)-3-(4-(3,4-difluorophenyl)-1H-1,2,3-triazol-1-yl) quinuclidine]	122 °C	10 ± 4 nM	
COc1cccc(-c2cn([C@H]3CN4CCC3CC4)nn2)c1 [Compound 47, (R)-3-(4-(3-Methoxyphenyl)-1H-1,2,3-triazol-1-yl)quinuclidine]		2.3 ± 1 nM	
COc1ccc2cc(-c3cn([C@H]4CN5CCC4CC5)nn3)ccc2c1 [Compound 49, (R)-3-(4-(6-Methoxynaphthalen-2-yl)-1H-1,2,3-triazol-1-yl)quinuclidine]	186 °C	196 ± 21 nM	
Fc1ccc(-c2cn([C@H]3CN4CCC3CC4)nn2)cn1 [Compound 51, (R)-3-(4-(6-fluoropyridin-3-yl)-1H-1,2,3-triazol-1-yl) quinuclidine]	147 °C	469 ± 6 nM	
COc1ccc(-c2cn([C@H]3CN4CCC3CC4)nn2)cn1 [Compound 52, (R)-3-(4-(6-Methoxypyridin-3-yl)-1H-1,2,3-triazol-1-yl)quinuclidine]	155 °C	105 ± 29 nM	
c1csc(-c2cn([C@H]3CN4CCC3CC4)nn2)c1 [Compound 53, (R)-3-(4-(Thiophen-2-yl)-1H-1,2,3-triazol-1-yl)quinuclidine]	137 °C	9.5 ± 3 nM	
Brc1ccc(-c2cn([C@H]3CN4CCC3CC4)nn2)s1 [Compound 54, (R)-3-(4-(5-Bromothiophen-2-yl)-1H-1,2,3-triazol-1-yl) quinuclidine]	146 °C		13 ± 4 nM
c1cc2cc(-c3cn([C@H]4CN5CCC4CC5)nn3)ccc2s1 [Compound 55, (R)-3-(4 Benzo[b](thiophen-5-yl)-1H-1,2,3-triazol-1-yl) quinuclidine]	178 °C	19 ± 1 nM	
c1cc2cc(-c3cn([C@H]4CN5CCC4CC5)nn3)ccc2o1 [Compound 56, (R)-3-(4-(Benzofuran-5-yl)-1H-1,2,3-triazol-1-yl)quinuclidine]	178 °C	3 ± 1 nM	
Fc1ccc(-c2cn([C@@H]3CN4CCC3CC4)nn2)cc1 [Compound 57, (S)-3-(4-(4-Fluorophenyl)-1H-1,2,3-triazol-1-yl)quinuclidine]	139 °C	114 ± 38 nM	
Nc1c(-c2ccccc2)nnn1[C@H]1CN2CCC1CC2 [Compound 60, (R)-4-Phenyl-1-(quinuclidin-3-yl)-1H-1,2,3-triazol-5-amine]	120 °C		11 ± 4 nM
c1csc(-c2ccc(-c3cn([C@H]4CN5CCC4CC5)nn3)s2)c1 [Compound 61, (R)-3-(4-(2,7-Bithiophen-5-yl)-1H-1,2,3-triazol-1-yl)quinuclidine]	182 °C	20 ± 2 nM	
c1coc(-c2ccc(-c3cn([C@H]4CN5CCC4CC5)nn3)s2)c1 [Compound 62, (R)-3-(4-(5-(Furan-2-yl)thiophen-2-yl)-1H-1,2,3-triazol-1-yl)quinuclidine]	180 °C	10 ± 1 nM	
OCc1ccc(-c2ccc(-c3cn([C@H]4CN5CCC4CC5)nn3)s2)cc1 [Compound 63, (R)-(4-(5-(1-(quinuclidin-3-yl)-1H-1,2,3-triazol-4-yl)thiophen-2-yl)phenyl)methanol]	253 °C	0.6 ± 0.2 nM	

SMILES	melting point	Ki [1, 2]	Ki [1]
FC1(c2cn(-c3ccc(Br)cc3)nn2)CN2CCC1CC2 (stereo not shown) [Compound 71, 3-Fluoro-3-(1-(4-bromophenyl)-1H-1,2,3-triazol-4-yl)quinuclidine]	127 °C	150 ± 10 nM	
Brc1cccc(-c2cn([C@H]3CN4CCC3CC4)nn2)c1 [Compound 83, (R)-3-[4-(3-bromophenyl)-1H-1,2,3-triazol-1-yl]quinuclidine]	188 °C		11 nM
OCc1ccc(-c2ccc(-c3cn([C@H]4CN5CCC4CC5)nn3)o2)cc1 [Compound 84, (R)-[4-[5-[1-[quinuclidin-3-yl]-1H-1,2,3-triazol-4-yl]-2-furyl]-phenyl]-methanol]	209 °C		6 nM
OCc1cccc(-c2csc(-c3cn([C@H]4CN5CCC4CC5)nn3)c2)c1 [Compound 89, (R)-[3-[5-[1-[quinuclidin-3-yl]-1H-1,2,3-triazol-4-yl]-3-thienyl]phenyl]methanol]	211 °C	13 nM	
OCc1ccc(-c2coc(-c3cn([C@H]4CN5CCC4CC5)nn3)c2)cc1 [Compound 90, (R)-[4-[5-[1-[quinuclidin-3-yl]-1H-1,2,3-triazol-4-yl]-3-furyl]phenyl]methanol]	202 °C		9 nM
Fc1ccc(-c2coc(-c3cn([C@H]4CN5CCC4CC5)nn3)c2)cn1 [Compound 91, (R)-3-[4-[4-(6-fluoro-3-pyridyl)-2-furyl]-1H-1,2,3-triazol-1-yl]quinuclidine]	210 °C		117 nM
OCc1cccc(-c2coc(-c3cn([C@H]4CN5CCC4CC5)nn3)c2)c1 [Compound 92, (R)-[3-[5-[1-[quinuclidin-3-yl]-1H-1,2,3-triazol-4-yl]-3-furyl]phenyl]methanol]	212 °C		115 nM
OCc1ccc(-c2ccc(-c3cn([C@H]4CN5CCC4CC5)nn3)cc2)cc1 [Compound 93, (R)-[4-[4-[1-[quinuclidin-3-yl]-1H-1,2,3-triazol-4-yl]phenyl]phenyl]methanol]	250 °C		137 nM
OCc1cccc(-c2ccc(-c3cn([C@H]4CN5CCC4CC5)nn3)cc2)c1 [Compound 95, (R)-[3-[4-[1-[quinuclidin-3-yl]-1H-1,2,3-triazol-4-yl]phenyl]phenyl]methanol]	207 °C	100 nM	
c1csc(-c2ccc(-c3cn([C@H]4CN5CCC4CC5)nn3)cc2)c1 [Compound 96, (R)-3-[4-[4-(2-thienyl)phenyl]-1H-1,2,3-triazol-1-yl]quinuclidine]	214 °C		135 nM
O=Cc1ccc(-c2ccc(-c3cn([C@H]4CN5CCC4CC5)nn3)cc2)s1 [Compound 97, (R)-5-[4-[1-[quinuclidin-3-yl]-1H-1,2,3-triazol-4-yl]phenyl]thiophene-2-carbaldehyde]	228 °C		90 to 120 nM
OCc1ccc(-c2cccc(-c3cn([C@H]4CN5CCC4CC5)nn3)c2)cc1 [Compound 98, (R)-[4-[3-[1-[quinuclidin-3-yl]-1H-1,2,3-triazol-4-yl]phenyl]phenyl]methanol]	214 °C		105 nM
OCc1cccc(-c2cccc(-c3cn([C@H]4CN5CCC4CC5)nn3)c2)c1 [Compound 99, (R)-[3-[3-[1-[quinuclidin-3-yl]-1H-1,2,3-triazol-4-yl]phenyl]phenyl]methanol]	201 °C	1.4 nM	
Fc1ccc(-c2cccc(-c3cn([C@H]4CN5CCC4CC5)nn3)c2)cn1 [Compound 100, (R)-3-[4-[3-(6-fluoro-3-pyridyl)phenyl]-1H-1,2,3-triazol-1-yl]quinuclidine]	164 °C	16 nM	
O=Cc1ccc(-c2cccc(-c3cn([C@H]4CN5CCC4CC5)nn3)c2)s1 [Compound 101, (R)-5-[3-[1-[quinuclidin-3-yl]-1H-1,2,3-triazol-4-yl]phenyl]thiophene-2-carbaldehyde]	150 °C		7 nM
c1cc(-c2ccc(-c3cn([C@H]4CN5CCC4CC5)nn3)s2)ccc1CN1CCOCC1 [Compound 102]	222 °C	0.9 nM	
c1cc(-c2ccc(-c3cn([C@H]4CN5CCC4CC5)nn3)s2)ccc1CN1CCCCC1 [Compound 103, (R)-3-[4-[5-[4-(1-piperidylmethyl)phenyl]-2-thienyl]-1H-1,2,3-triazol-1-yl]quinuclidine]	230 °C	0.3 nM	
CN1CCN(Cc2ccc(-c3ccc(-c4cn([C@H]5CN6CCC5CC6)nn4)s3)cc2)CC1 [Compound 104, (R)-3-[4-[5-[4-[(4-methylpiperazin-1-yl)methyl]phenyl]-2-thienyl]-1H-1,2,3-triazol-1-yl]quinuclidine]	214 °C	0.3 nM	
COC(=O)c1ccc(-c2ccc(-c3cn([C@H]4CN5CCC4CC5)nn3)s2)cc1F [Compound 105, Methyl-2-fluoro-4-[5-[1-[(3R)-quinuclidin-3-yl]-1H-1,2,3-triazol-4-yl]-2-thienyl]benzoate]	250 °C		85 nM
FCc1ccc(-c2ccc(-c3cn([C@H]4CN5CCC4CC5)nn3)s2)cc1 [Compound 112, (R)-3-[4-[5-[4-(fluoromethyl)phenyl]-2-thienyl]-1H-1,2,3-triazol-1-yl]quinuclidine]	199 °C	5 nM	
